Experimental data: ChEMBL document CHEMBL3808389, “Stable and biocompatible cystine knot peptides from the marine sponge Asteropus sp” (Bioorg Med Chem, 2016)
Where a SMILES comes first, the peptide text is derived from it. Bridges are numbered along the chain shown (N, C = ends). [ ]: non-standard residue; d: D form. ξ: configuration not given here. ξpGlu = O=C1CCC(C(=O)O)N1

Experiments:
[1] = Thermal stability in Tris-acetate-EDTA buffer of pH 8.3 at 100 degC measured upto 12 hrs by reverse-phase HPLC analysis; assay type: physicochemical; settings: pH 8.3, 12 h
[2] = Toxicity in human RBC assessed as hemolytic activity at 50 uM measured after 1 hr by spectrophotometric analysis; assay type: cell-based, Erythrocyte; settings: for Activity: erythrocyte, 1 h, 50 µM
[3] = Toxicity in Thamnaconus modestus RBC assessed as hemolytic activity at 0.08 to 50 uM measured after 1 hr by spectrophotometric analysis; assay type: cell-based; settings: erythrocyte
RAW264.7 [4] = experiment: Cytotoxicity against mouse RAW264.7 cells assessed as cell viability at 10 or 40 ug/ml measured after 24 hrs by WST assay; assay type: cell-based; settings: raw264.7, 24 h
RAW264.7 [5] = experiment: Toxicity in mouse RAW264.7 cells assessed as in induction of Nitric oxide production at 10 or 40 ug/ml measured after 24 hrs by Griess reaction method; assay type: cell-based; settings: raw264.7, 24 h
Plasma = experiment: Metabolic stability in human plasma at 37 degC measured upto 12 hrs by reverse-phase HPLC analysis; assay type: ADME, cell-free
[6] = Thermal stability of the compound in phosphate buffer of pH 7.4 at 50 ug at 100 degC assessed as conformation changes by measuring changes in short wavelength region (195 nanometer) by CD analysis; assay type: physicochemical
[7] = Thermal stability of the compound in phosphate buffer of pH 7.4 at 50 ug at 25 degC by CD analysis; assay type: physicochemical
[8] = Cytotoxicity against rat Ac2F cells at 30 uM; assay type: cell-based
[9] = Chemical stability assessed as trypsin (unknown origin)-mediated degradation in simulated human intestinal fluid at 37 degC measured up to 12 hrs by reverse-phase HPLC analysis; assay type: ADME, physicochemical; settings: simulated gi fluid
[10] = Chemical stability assessed as chymotrypsin (unknown origin)-mediated degradation in simulated human intestinal fluid at 37 degC measured up to 12 hrs by reverse-phase HPLC analysis; assay type: ADME, physicochemical; settings: simulated gi fluid
[11] = Chemical stability assessed as pepsin (unknown origin)-mediated degradation in simulated human intestinal fluid at 37 degC measured up to 12 hrs by reverse-phase HPLC analysis; assay type: ADME, physicochemical; settings: simulated gi fluid
[12] = Chemical stability assessed as elastase (unknown origin)-mediated degradation in simulated human intestinal fluid at 37 degC measured up to 12 hrs by reverse-phase HPLC analysis; assay type: ADME, physicochemical; settings: simulated gi fluid
Mus musculus [13] = experiment: Toxicity in mouse assessed as aggressiveness at 40 mg/kg, ip after 12 hrs; assay type: organism-based; settings: in vivo
Mus musculus [14] = experiment: Toxicity in mouse assessed as stiff tail at 40 mg/kg, ip after 12 hrs; assay type: organism-based; settings: in vivo
Mus musculus [15] = experiment: Toxicity in mouse assessed as paralysis at 40 mg/kg, ip after 12 hrs; assay type: organism-based; settings: in vivo
Mus musculus [16] = experiment: Toxicity in mouse assessed as convulusion at 40 mg/kg, ip after 12 hrs; assay type: organism-based; settings: in vivo
Mus musculus [17] = experiment: Toxicity in mouse assessed as mortality at 40 mg/kg, ip after 7 days; assay type: organism-based; settings: in vivo, 168 h
Mus musculus [18] = experiment: Toxicity in mouse assessed as appearance changes at 40 mg/kg, ip after 7 days; assay type: organism-based; settings: in vivo, 168 h
Mus musculus [19] = experiment: Toxicity in mouse assessed as behavior changes at 40 mg/kg, ip after 7 days; assay type: organism-based; settings: in vivo, 168 h

CC[C@H](C)[C@H](NC(=O)[C@@H](NC(=O)[C@H](Cc1ccc(O)cc1)NC(=O)[C@@H]1CSSC[C@@H]2NC(=O)[C@@H]3CCCN3C(=O)[C@H](CC(N)=O)NC(=O)[C@H](Cc3ccccc3)NC(=O)[C@H](CCC(=O)O)NC(=O)[C@H](C(C)C)NC(=O)[C@H](CC(=O)O)NC(=O)[C@@H]3CSSC[C@H](NC(=O)[C@H]([C@H](C)O)NC(=O)[C@H](CC(C)C)NC(=O)[C@@H]4CCCN4C(=O)[C@@H]4CCCN4C(=O)[C@H](CSSC[C@H](N)C(=O)N4CCC[C@H]4C(=O)NCC(=O)N[C@@H](CCC(=O)O)C(=O)NCC(=O)N[C@@H](CCC(=O)O)C(=O)N[C@@H](CCC(N)=O)C(=O)N3)NC2=O)C(=O)N[C@@H]([C@@H](C)CC)C(=O)N2CCC[C@H]2C(=O)NCC(=O)N[C@@H](CC(=O)O)C(=O)N2CCC[C@H]2C(=O)N[C@@H](Cc2ccc(O)cc2)C(=O)NCC(=O)N[C@@H]([C@@H](C)CC)C(=O)N1)[C@@H](C)CC)C(=O)O
Stability [1]: Stable | Activity [2]: Non-toxic | Activity [3]: Non-toxic | Activity (RAW264.7 [4]): Non-toxic | Activity (RAW264.7 [5]): Non-toxic

CC(C)C[C@@H]1NC(=O)CNC(=O)[C@H](CC(N)=O)NC(=O)[C@H](CCCNC(=N)N)NC(=O)[C@H]([C@@H](C)O)NC(=O)[C@@H]2CSSC[C@@H]3NC(=O)[C@H]([C@@H](C)O)NC(=O)CNC(=O)CNC(=O)[C@H](C(C)C)NC(=O)[C@@H]4CSSC[C@H](NC(=O)[C@H]([C@@H](C)O)NC(=O)[C@H](CSSC[C@H](NC(=O)[C@H](C(C)C)NC(=O)[C@@H]5CCCN5C1=O)C(=O)NCC(=O)N[C@@H](CCC(=O)O)C(=O)N[C@@H]([C@@H](C)O)C(=O)N4)NC(=O)CNC(=O)[C@@H]1CCCN1C(=O)[C@H]([C@@H](C)O)NC(=O)[C@H](CC(N)=O)NC3=O)C(=O)N[C@@H](CO)C(=O)N[C@@H](Cc1c[nH]c3ccccc13)C(=O)N1CCC[C@H]1C(=O)N[C@@H](C(C)C)C(=O)N2
Stability [1]: Stable | hemolysis at 1 h, 50 µM ([2]; red blood cells, read-out: Activity): 74%

CC[C@H](C)[C@H](NC(=O)[C@@H](NC(=O)[C@H](Cc1ccc(O)cc1)NC(=O)[C@@H]1CSSC[C@@H]2NC(=O)[C@@H]3CCCN3C(=O)[C@H](CC(N)=O)NC(=O)[C@H](Cc3ccccc3)NC(=O)[C@H](CCC(=O)O)NC(=O)[C@H](C(C)C)NC(=O)[C@H](CC(=O)O)NC(=O)[C@@H]3CSSC[C@H](NC(=O)[C@H]([C@@H](C)O)NC(=O)[C@H](CC(C)C)NC(=O)[C@@H]4CCCN4C(=O)[C@@H]4CCCN4C(=O)[C@H](CSSC[C@H](N)C(=O)N4CCC[C@H]4C(=O)NCC(=O)N[C@@H](CCC(=O)O)C(=O)NCC(=O)N[C@@H](CCC(=O)O)C(=O)N[C@@H](CCC(=O)O)C(=O)N3)NC2=O)C(=O)N[C@@H]([C@@H](C)CC)C(=O)N2CCC[C@H]2C(=O)NCC(=O)N[C@@H](CC(=O)O)C(=O)N2CCC[C@H]2C(=O)N[C@@H](Cc2ccc(O)cc2)C(=O)NCC(=O)N[C@@H]([C@@H](C)CC)C(=O)N1)[C@@H](C)CC)C(=O)O (H-CPGEGEECDVEFNPCCPPLTCIPGDPYGICYII-OH; disulfide 1-16, 8-21, 15-30)
Stability (Plasma): Stable | Stability [6]: Unstable | Stability [7]: Stable | Stability [1]: Stable | Activity [2]: Non-toxic | Activity [3]: Non-toxic | Activity (RAW264.7 [4]): Non-toxic | Activity (RAW264.7 [5]): Non-toxic | Activity [8]: Non-toxic | Stability [9]: Stable | Stability [10]: Stable | Stability [11]: Stable | Stability [12]: Stable

CC[C@H](C)[C@@H]1NC(=O)[C@@H]2CSSC[C@@H]3NC(=O)[C@H](CO)NC(=O)[C@H](CCC(=O)O)NC(=O)CNC(=O)[C@H](CCC(=O)O)NC(=O)[C@H](Cc4ccccc4)NC(=O)[C@H](C)NC(=O)[C@@H](NC(=O)CNC(=O)C4CCC(=O)N4)CSSC[C@H](NC(=O)[C@H](CSSC[C@@H](C(=O)N[C@@H](Cc4ccc(O)cc4)C(=O)N[C@@H](Cc4ccc(O)cc4)C(=O)N[C@@H](CC(C)C)C(=O)O)NC(=O)[C@H]([C@@H](C)O)NC(=O)CNC(=O)[C@H](CC(=O)O)NC(=O)[C@@H]4CCCN4C(=O)[C@H](CC(N)=O)NC(=O)CNC(=O)[C@@H]4CCCN4C1=O)NC(=O)[C@@H]1CCCN1C(=O)[C@H](Cc1ccc(O)cc1)NC(=O)[C@H](Cc1ccccc1)NC(=O)[C@H](CCC(=O)O)NC(=O)[C@H](C(C)C)NC(=O)[C@H](CC(N)=O)NC3=O)C(=O)N1CCC[C@H]1C(=O)NCC(=O)N[C@@H](CC(C)C)C(=O)NCC(=O)N[C@@H](CC(C)C)C(=O)N[C@@H]([C@@H](C)O)C(=O)N2 (some centres not stated) ([ξpGlu]GCAFEGESCNVEFYPCCPGLGLTCIPGNPDGTCYYL-OH; disulfide 3-18, 10-25, 17-34)
Activity [2]: Non-toxic | Activity [3]: Non-toxic

CC[C@H](C)[C@@H]1NC(=O)[C@@H]2CSSC[C@@H]3NC(=O)[C@H](CO)NC(=O)[C@H](CCC(=O)O)NC(=O)CNC(=O)[C@H](CCC(=O)O)NC(=O)[C@H](Cc4ccccc4)NC(=O)[C@H](C)NC(=O)[C@@H](NC(=O)CNC(=O)C4CCC(=O)N4)CSSC[C@H](NC(=O)[C@H](CSSC[C@@H](C(=O)N[C@@H](Cc4ccc(O)cc4)C(=O)N[C@@H](Cc4ccc(O)cc4)C(=O)N[C@@H](CC(C)C)C(=O)O)NC(=O)[C@H]([C@@H](C)O)NC(=O)CNC(=O)[C@H](CC(=O)O)NC(=O)[C@@H]4CCCN4C(=O)[C@H](CC(N)=O)NC(=O)CNC(=O)[C@@H]4CCCN4C1=O)NC(=O)[C@@H]1CCCN1C(=O)[C@H](Cc1ccc(O)cc1)NC(=O)[C@H](Cc1ccccc1)NC(=O)[C@H](CCC(N)=O)NC(=O)[C@H](C(C)C)NC(=O)[C@H](CC(N)=O)NC3=O)C(=O)N1CCC[C@H]1C(=O)NCC(=O)N[C@@H](CC(C)C)C(=O)NCC(=O)N[C@@H](CC(C)C)C(=O)N[C@@H]([C@@H](C)O)C(=O)N2 (some centres not stated) ([ξpGlu]GCAFEGESCNVQFYPCCPGLGLTCIPGNPDGTCYYL-OH; disulfide 3-18, 10-25, 17-34)
Stability [1]: Stable | Activity [2]: Non-toxic | Activity [3]: Non-toxic | Activity (RAW264.7 [4]): Non-toxic | Activity (RAW264.7 [5]): Non-toxic | Activity (Mus musculus [13]): Non-toxic | Activity (Mus musculus [14]): Non-toxic | Activity (Mus musculus [15]): Non-toxic | Activity (Mus musculus [16]): Non-toxic | Activity (Mus musculus [17]): Non-toxic | Activity (Mus musculus [18]): Non-toxic | Activity (Mus musculus [19]): Non-toxic

CC[C@H](C)[C@@H]1NC(=O)CNC(=O)CNC(=O)[C@@H]2CCCN2C(=O)[C@H](CC(=O)O)NC(=O)CNC(=O)[C@@H]2CCCN2C(=O)[C@H](Cc2ccc(O)cc2)NC(=O)[C@@H]2CSSC[C@@H]3NC(=O)[C@H](CCC(=O)O)NC(=O)[C@H](CCC(=O)O)NC(=O)CNC(=O)[C@@H]4CCCN4C(=O)CNC(=O)[C@H](C)NC(=O)[C@@H](NC(=O)CNC(=O)C4CCC(=O)N4)CSSC[C@H](NC(=O)[C@H](CSSC[C@@H](C(=O)N[C@@H](Cc4ccc(O)cc4)C(=O)O)NC1=O)NC(=O)[C@H](CC(=O)O)NC(=O)[C@H](Cc1ccc(O)cc1)NC(=O)[C@H](Cc1ccccc1)NC(=O)CNC(=O)[C@H](C(C)C)NC(=O)[C@H]([C@@H](C)CC)NC3=O)C(=O)N1CCC[C@H]1C(=O)NCC(=O)N[C@@H](Cc1ccc(O)cc1)C(=O)N[C@@H](CCCNC(=N)N)C(=O)N2 (some centres not stated) ([ξpGlu]GCAGPGEECIVGFYDCCPGYRCYPGDPGGICY-OH; disulfide 3-18, 10-23, 17-32)
Activity [2]: Non-toxic | Activity [3]: Non-toxic | Activity (RAW264.7 [4]): Non-toxic | Activity (RAW264.7 [5]): Non-toxic

CC[C@H](C)[C@@H]1NC(=O)[C@H](CC(C)C)NC(=O)CNC(=O)[C@H](CC(=O)O)NC(=O)[C@@H]2CSSC[C@H](NC(=O)[C@H](Cc3c[nH]c4ccccc34)NC(=O)C3CCC(=O)N3)C(=O)N[C@@H](C)C(=O)N[C@@H](CCC(=O)O)C(=O)N[C@@H](CCC(=O)O)C(=O)NCC(=O)N[C@@H](CCC(=O)O)C(=O)N[C@@H](CO)C(=O)N[C@H]3CSSC[C@H](NC1=O)C(=O)N[C@@H](Cc1ccc(O)cc1)C(=O)N1CCC[C@H]1C(=O)N[C@@H]([C@@H](C)O)C(=O)N[C@@H](Cc1ccccc1)C(=O)N1CCC[C@H]1C(=O)N[C@@H](CCC(=O)O)C(=O)N1CCC[C@H]1C(=O)N[C@@H]([C@@H](C)CC)C(=O)N[C@H](C(=O)NCC(=O)N[C@H](C(=O)O)C(C)C)CSSC[C@H](NC(=O)[C@@H]1CCCN1C(=O)[C@H](Cc1ccc(O)cc1)NC(=O)[C@H](C(C)C)NC(=O)[C@H](CCC(=O)O)NC3=O)C(=O)N2 (some centres not stated) ([ξpGlu]WCAEEGESCEVYPCCDGLICYPTFPEPICGV-OH; disulfide 3-16, 10-21, 15-30)
Stability (Plasma): Stable | Stability [6]: Unstable | Stability [7]: Stable | Activity [2]: Non-toxic | Activity [3]: Non-toxic | Stability [9]: Stable | Stability [10]: Stable | Stability [11]: Stable | Stability [12]: Stable
